# Test results taken from paper PMC8245078, “Development of novel benzofuran-isatin conjugates as potential antiproliferative agents with apoptosis inducing mechanism in Colon cancer” (Journal of Enzyme Inhibition and Medicinal Chemistry, 2021).
# Like-named read-outs stand apart in the source and are kept apart here.
# Columns and labels:
# Assay in all cases: NCI single dose screening (10 µM)
# Format in all cases: cell-based
# OVCAR-5 = conditions: Homo sapiens
# HCT-15 = conditions: Homo sapiens
# SR = conditions: Homo sapiens, read-out: GI% (cell growth inhibition percentage)
# SK-MEL-28 = conditions: Homo sapiens
# SK-MEL-2 = conditions: Homo sapiens
# UACC-62 = conditions: Homo sapiens
# SF-295 = conditions: Homo sapiens
# SNB-19 = conditions: Homo sapiens
# MDA-MB-435 = conditions: Homo sapiens
# HS 578 T = conditions: Homo sapiens, read-out: GI% (cell growth inhibition percentage)
# DU-145 = conditions: Homo sapiens
# PC-3 = conditions: Homo sapiens
# IGROV1 = conditions: Homo sapiens
# OVCAR-8 = conditions: Homo sapiens
# 786-0 = conditions: Homo sapiens
# MOLT-4 = conditions: Homo sapiens
# HL-60(TB) = conditions: Homo sapiens
# TK-10 = conditions: Homo sapiens
# COLO 205 = conditions: Homo sapiens
# NCI-H522 = conditions: Homo sapiens
# NCI-H23 = conditions: Homo sapiens
# CAKI-1 = conditions: Homo sapiens
# [1] = OVCAR-5, read-out: GI% (cell growth inhibition percentage)
# [2] = HCT-15, read-out: GI% (cell growth inhibition percentage)
# [3] = SK-MEL-28, read-out: GI% (cell growth inhibition percentage)
# [4] = SK-MEL-2, read-out: GI% (cell growth inhibition percentage)
# [5] = UACC-62, read-out: GI% (cell growth inhibition percentage)
# [6] = SF-295, read-out: GI% (cell growth inhibition percentage)
# [7] = SNB-19, read-out: GI% (cell growth inhibition percentage)
# [8] = MDA-MB-435, read-out: GI% (cell growth inhibition percentage)
# [9] = DU-145, read-out: GI% (cell growth inhibition percentage)
# [10] = PC-3, read-out: GI% (cell growth inhibition percentage)
# [11] = IGROV-1, read-out: GI% (cell growth inhibition percentage)
# [12] = OVCAR-8, read-out: GI% (cell growth inhibition percentage)
# [13] = 786-0, read-out: GI% (cell growth inhibition percentage)
# [14] = MOLT-4, read-out: GI% (cell growth inhibition percentage)
# [15] = HL-60, read-out: GI% (cell growth inhibition percentage)
# [16] = TK-10, read-out: GI% (cell growth inhibition percentage)
# [17] = COLO 205, read-out: GI% (cell growth inhibition percentage)
# [18] = NCI-H522, read-out: GI% (cell growth inhibition percentage)
# [19] = NCI-H23, read-out: GI% (cell growth inhibition percentage)
# [20] = CAKI-1, read-out: GI% (cell growth inhibition percentage)
structure (smiles),measurement,setting,value
Cc1c(C(=O)N/N=C2\C(=O)N(C)c3ccccc32)oc2ccccc12 [Compound 7a],inhibition at 10 µM,"OVCAR-5; OVCAR-5, Ovarian cancer, single dose 10^−5 M, read-out: GI% (cell growth inhibition percentage)",< 10%
same,inhibition at 10 µM,"HCT-15; HCT-15, Colon cancer, single dose 10^−5 M, read-out: GI% (cell growth inhibition percentage)",< 10%
same,inhibition at 10 µM,"SR; Leukaemia, single dose 10^−5 M",< 10%
same,inhibition at 10 µM,"SK-MEL-28; SK-MEL-28, Melanoma, single dose 10^−5 M, read-out: GI% (cell growth inhibition percentage)",< 10%
same,inhibition at 10 µM,"SK-MEL-2; SK-MEL-2, Melanoma, single dose 10^−5 M, read-out: GI% (cell growth inhibition percentage)",< 10%
same,inhibition at 10 µM,"UACC-62; UACC-62, Melanoma, single dose 10^−5 M, read-out: GI% (cell growth inhibition percentage)",< 10%
same,inhibition at 10 µM,"SF-295; SF-295, CNS cancer, single dose 10^−5 M, read-out: GI% (cell growth inhibition percentage)",11.8%
same,inhibition at 10 µM,"SNB-19; SNB-19, CNS cancer, single dose 10^−5 M, read-out: GI% (cell growth inhibition percentage)",< 10%
same,inhibition at 10 µM,"MDA-MB-435; MDA-MB-435, Melanoma, single dose 10^−5 M, read-out: GI% (cell growth inhibition percentage)",< 10%
same,inhibition at 10 µM,"HS 578 T; HS 578 T, Breast cancer, single dose 10^−5 M",< 10%
same,inhibition at 10 µM,"DU-145; DU-145, Prostate cancer, single dose 10^−5 M, read-out: GI% (cell growth inhibition percentage)",< 10%
same,inhibition at 10 µM,"PC-3; PC-3, Prostate cancer, single dose 10^−5 M, read-out: GI% (cell growth inhibition percentage)",< 10%
same,inhibition at 10 µM,"IGROV1; IGROV-1, IGROV1, Ovarian cancer, single dose 10^−5 M, read-out: GI% (cell growth inhibition percentage)",32.8%
same,inhibition at 10 µM,"OVCAR-8; OVCAR-8, Ovarian cancer, single dose 10^−5 M, read-out: GI% (cell growth inhibition percentage)",< 10%
same,inhibition at 10 µM,"786-0; 786-0, Renal cancer, single dose 10^−5 M, read-out: GI% (cell growth inhibition percentage)",< 10%
same,inhibition at 10 µM,"MOLT-4; MOLT-4, Leukaemia, single dose 10^−5 M, read-out: GI% (cell growth inhibition percentage)",< 10%
same,inhibition at 10 µM,"HL-60(TB); HL-60(TB), Leukaemia, single dose 10^−5 M, read-out: GI% (cell growth inhibition percentage)",< 10%
same,inhibition at 10 µM,"TK-10; TK-10, Renal cancer, single dose 10^−5 M, read-out: GI% (cell growth inhibition percentage)",< 10%
same,inhibition at 10 µM,"COLO 205; COLO 205, Colon cancer, single dose 10^−5 M, read-out: GI% (cell growth inhibition percentage)",< 10%
same,inhibition at 10 µM,"NCI-H522; NCI-H522, Non-small cell lung cancer, single dose 10^−5 M, read-out: GI% (cell growth inhibition percentage)",< 10%
same,inhibition at 10 µM,"NCI-H23; NCI-H23, Non-small cell lung cancer, single dose 10^−5 M, read-out: GI% (cell growth inhibition percentage)",< 10%
same,inhibition at 10 µM,"CAKI-1; CAKI-1, Renal cancer, single dose 10^−5 M, read-out: GI% (cell growth inhibition percentage)",19.4%
CCCN1C(=O)/C(=N\NC(=O)c2oc3ccccc3c2C)c2ccccc21 [Compound 7b],inhibition at 10 µM,OVCAR-5; [1],< 10%
same,inhibition at 10 µM,HCT-15; [2],< 10%
same,inhibition at 10 µM,SR,< 10%
same,inhibition at 10 µM,SK-MEL-28; [3],< 10%
same,inhibition at 10 µM,SK-MEL-2; [4],< 10%
same,inhibition at 10 µM,UACC-62; [5],16.9%
same,inhibition at 10 µM,SF-295; [6],11.9%
same,inhibition at 10 µM,SNB-19; [7],< 10%
same,inhibition at 10 µM,MDA-MB-435; [8],< 10%
same,inhibition at 10 µM,HS 578 T; Hs-578T,< 10%
same,inhibition at 10 µM,DU-145; [9],< 10%
same,inhibition at 10 µM,PC-3; [10],10.8%
same,inhibition at 10 µM,IGROV1; [11],42.5%
same,inhibition at 10 µM,OVCAR-8; [12],< 10%
same,inhibition at 10 µM,786-0; [13],< 10%
same,inhibition at 10 µM,MOLT-4; [14],< 10%
same,inhibition at 10 µM,HL-60(TB); [15],10.9%
same,inhibition at 10 µM,TK-10; [16],< 10%
same,inhibition at 10 µM,COLO 205; [17],< 10%
same,inhibition at 10 µM,NCI-H522; [18],10.3%
same,inhibition at 10 µM,NCI-H23; [19],15.1%
same,inhibition at 10 µM,CAKI-1; [20],11.3%
Cc1c(C(=O)N/N=C2\C(=O)N(Cc3ccccc3)c3ccccc32)oc2ccccc12 [Compound 7d],inhibition at 10 µM,OVCAR-5; [1],< 10%
same,inhibition at 10 µM,HCT-15; [2],< 10%
same,inhibition at 10 µM,SR,< 10%
same,inhibition at 10 µM,SK-MEL-28; [3],< 10%
same,inhibition at 10 µM,SK-MEL-2; [4],< 10%
same,inhibition at 10 µM,UACC-62; [5],20.6%
same,inhibition at 10 µM,SF-295; [6],< 10%
same,inhibition at 10 µM,SNB-19; [7],11.6%
same,inhibition at 10 µM,MDA-MB-435; [8],< 10%
same,inhibition at 10 µM,HS 578 T; Hs-578T,< 10%
same,inhibition at 10 µM,DU-145; [9],< 10%
same,inhibition at 10 µM,PC-3; [10],15.7%
same,inhibition at 10 µM,IGROV1; [11],33.6%
same,inhibition at 10 µM,OVCAR-8; [12],< 10%
same,inhibition at 10 µM,786-0; [13],< 10%
same,inhibition at 10 µM,MOLT-4; [14],< 10%
same,inhibition at 10 µM,HL-60(TB); [15],< 10%
same,inhibition at 10 µM,TK-10; [16],< 10%
same,inhibition at 10 µM,COLO 205; [17],< 10%
same,inhibition at 10 µM,NCI-H522; [18],21.7%
same,inhibition at 10 µM,NCI-H23; [19],13.2%
same,inhibition at 10 µM,CAKI-1; [20],19%
CCCN1C(=O)/C(=N\NC(=O)c2oc3ccccc3c2C)c2cc(Br)ccc21 [Compound 7g],inhibition at 10 µM,OVCAR-5; [1],< 10%
same,inhibition at 10 µM,HCT-15; [2],< 10%
same,inhibition at 10 µM,SR,< 10%
same,inhibition at 10 µM,SK-MEL-28; [3],< 10%
same,inhibition at 10 µM,SK-MEL-2; [4],< 10%
same,inhibition at 10 µM,UACC-62; [5],< 10%
same,inhibition at 10 µM,SF-295; [6],< 10%
same,inhibition at 10 µM,SNB-19; [7],< 10%
same,inhibition at 10 µM,MDA-MB-435; [8],< 10%
same,inhibition at 10 µM,HS 578 T; Hs-578T,< 10%
same,inhibition at 10 µM,DU-145; [9],< 10%
same,inhibition at 10 µM,PC-3; [10],< 10%
same,inhibition at 10 µM,IGROV1; [11],22.4%
same,inhibition at 10 µM,OVCAR-8; [12],< 10%
same,inhibition at 10 µM,786-0; [13],< 10%
same,inhibition at 10 µM,MOLT-4; [14],< 10%
same,inhibition at 10 µM,HL-60(TB); [15],< 10%
same,inhibition at 10 µM,TK-10; [16],< 10%
same,inhibition at 10 µM,COLO 205; [17],< 10%
same,inhibition at 10 µM,NCI-H522; [18],< 10%
same,inhibition at 10 µM,NCI-H23; [19],< 10%
same,inhibition at 10 µM,CAKI-1; [20],14.1%
